Assays:
Rattus norvegicus [1] = species on record: Rattus norvegicus; type: toxicity, organism-based, Sprague-Dawley; conditions: in vivo, po, 1868 mg/kg, 24 h, route oral GAVAGE, dose level High, time 1 day, vehicle .5 % CMC
Description: DrugMatrix - Regimen: Single

Rattus norvegicus [2] = species on record: Rattus norvegicus; assay: DrugMatrix - Regimen: Daily Repeat; type: toxicity, organism-based, Sprague-Dawley; design: regimen Daily Repeat, gender Male, age 6-8 weeks; conditions: in vivo, po, 1868 mg/kg, route oral GAVAGE, dose level High, vehicle .5 % CMC
[3] = 72 h, tissue Plasma, time 3 day
[4] = 120 h, tissue Blood, time 5 day

CC(=O)OCc1ccccc1 [E1501]
ABSOLUTE EOSINOPHIL (Rattus norvegicus [1]; tissue Blood): 109.33 CELLS/uL
ABSOLUTE LYMPHOCYTE (Rattus norvegicus [1]; tissue Blood): 12916.67 CELLS/uL
ABSOLUTE MONOCYTE (Rattus norvegicus [1]; tissue Blood): 245.33 CELLS/uL
ABSOLUTE SEGMENTED NEUTROPHIL (Rattus norvegicus [1]; tissue Blood): 1062 CELLS/uL
BASOPHIL (Rattus norvegicus [1]; tissue Blood): 0%
EOSINOPHIL (Rattus norvegicus [1]; tissue Blood): 0.67%
ERYTHROCYTE COUNT (Rattus norvegicus [1]; tissue Blood): 5.87 x10E6/uL
HEMATOCRIT (Rattus norvegicus [1]; tissue Blood): 35.33%
HEMOGLOBIN (Rattus norvegicus [1]; tissue Blood): 12.87 G/DL
LEUKOCYTE COUNT (Rattus norvegicus [1]; tissue Blood): 14.33 x10E3/uL
LYMPHOCYTE (Rattus norvegicus [1]; tissue Blood): 90.67%
MEAN CORPUSCULAR HEMOGLOBIN (Rattus norvegicus [1]; tissue Blood): 21.93 pg
MEAN CORPUSCULAR HEMOGLOBIN CONCENTRATION (Rattus norvegicus [1]; tissue Blood): 36.4 G/DL
MEAN CORPUSCULAR VOLUME (Rattus norvegicus [1]; tissue Blood): 60.27 fL
MONOCYTE (Rattus norvegicus [1]; tissue Blood): 1.67%
NEUTROPHIL (Rattus norvegicus [1]; tissue Blood): 7%
NUCLEATED RED BLOOD CELLS (Rattus norvegicus [1]; tissue Blood): 0 /100WBC
PLATELET COUNT (Rattus norvegicus [1]; tissue Blood): 831 x10E3/uL
ALANINE AMINOTRANSFERASE (Rattus norvegicus [1]; tissue Plasma): 51 u/L
ALBUMIN (Rattus norvegicus [1]; tissue Plasma): 4.13 G/DL
ALKALINE PHOSPHATASE (Rattus norvegicus [1]; tissue Plasma): 348.67 u/L
ASPARTATE AMINOTRANSFERASE (Rattus norvegicus [1]; tissue Plasma): 87 u/L
BLOOD UREA NITROGEN (Rattus norvegicus [1]; tissue Plasma): 12.33 mg/dL
CARBON DIOXIDE (Rattus norvegicus [1]; tissue Plasma): 26 mmol/L
CHLORIDE (Rattus norvegicus [1]; tissue Plasma): 101.67 MEQ/L
CHOLESTEROL (Rattus norvegicus [1]; tissue Plasma): 53 mg/dL
CREATININE (Rattus norvegicus [1]; tissue Plasma): 0.24 mg/dL
GLUCOSE (Rattus norvegicus [1]; tissue Plasma): 189 mg/dL
LACTATE DEHYDROGENASE (Rattus norvegicus [1]; tissue Plasma): 338.67 u/L
LIPASE (Rattus norvegicus [1]; tissue Plasma): 10 u/L
PHOSPHORUS (Rattus norvegicus [1]; tissue Plasma): 14.53 mg/dL
POTASSIUM (Rattus norvegicus [1]; tissue Plasma): 6.76 MEQ/L
SODIUM (Rattus norvegicus [1]; tissue Plasma): 145.77 MEQ/L
TOTAL BILIRUBIN (Rattus norvegicus [1]; tissue Plasma): 0.13 mg/dL
TOTAL PROTEIN (Rattus norvegicus [1]; tissue Plasma): 6.1 G/DL
URIC ACID (Rattus norvegicus [1]; tissue Plasma): 2.13 mg/dL
ABSOLUTE BASOPHIL (Rattus norvegicus [2]; 72 h, tissue Blood, time 3 day): 0 CELLS/uL
ABSOLUTE EOSINOPHIL (Rattus norvegicus [2]; 72 h, tissue Blood, time 3 day): 53 CELLS/uL
ABSOLUTE LYMPHOCYTE (Rattus norvegicus [2]; 72 h, tissue Blood, time 3 day): 16547 CELLS/uL
ABSOLUTE MONOCYTE (Rattus norvegicus [2]; 72 h, tissue Blood, time 3 day): 404 CELLS/uL
ABSOLUTE SEGMENTED NEUTROPHIL (Rattus norvegicus [2]; 72 h, tissue Blood, time 3 day): 3196 CELLS/uL
BASOPHIL (Rattus norvegicus [2]; 72 h, tissue Blood, time 3 day): 0%
EOSINOPHIL (Rattus norvegicus [2]; 72 h, tissue Blood, time 3 day): 0.5%
ERYTHROCYTE COUNT (Rattus norvegicus [2]; 72 h, tissue Blood, time 3 day): 6.19 x10E6/uL
HEMATOCRIT (Rattus norvegicus [2]; 72 h, tissue Blood, time 3 day): 37.45%
HEMOGLOBIN (Rattus norvegicus [2]; 72 h, tissue Blood, time 3 day): 13.25 G/DL
LEUKOCYTE COUNT (Rattus norvegicus [2]; 72 h, tissue Blood, time 3 day): 20.2 x10E3/uL
LYMPHOCYTE (Rattus norvegicus [2]; 72 h, tissue Blood, time 3 day): 75.5%
MEAN CORPUSCULAR HEMOGLOBIN (Rattus norvegicus [2]; 72 h, tissue Blood, time 3 day): 21.45 pg
MEAN CORPUSCULAR HEMOGLOBIN CONCENTRATION (Rattus norvegicus [2]; 72 h, tissue Blood, time 3 day): 35.4 G/DL
MEAN CORPUSCULAR VOLUME (Rattus norvegicus [2]; 72 h, tissue Blood, time 3 day): 60.6 fL
MONOCYTE (Rattus norvegicus [2]; 72 h, tissue Blood, time 3 day): 2%
NEUTROPHIL (Rattus norvegicus [2]; 72 h, tissue Blood, time 3 day): 22%
NUCLEATED RED BLOOD CELLS (Rattus norvegicus [2]; 72 h, tissue Blood, time 3 day): 0 /100WBC
PLATELET COUNT (Rattus norvegicus [2]; 72 h, tissue Blood, time 3 day): 1224 x10E3/uL
ALANINE AMINOTRANSFERASE (Rattus norvegicus [2]; [3]): 60 u/L
ALBUMIN (Rattus norvegicus [2]; [3]): 4.7 G/DL
ALKALINE PHOSPHATASE (Rattus norvegicus [2]; [3]): 462 u/L
ASPARTATE AMINOTRANSFERASE (Rattus norvegicus [2]; [3]): 177 u/L
BLOOD UREA NITROGEN (Rattus norvegicus [2]; [3]): 54 mg/dL
CARBON DIOXIDE (Rattus norvegicus [2]; [3]): 24 mmol/L
CHLORIDE (Rattus norvegicus [2]; [3]): 92.5 MEQ/L
CHOLESTEROL (Rattus norvegicus [2]; [3]): 57 mg/dL
CREATININE (Rattus norvegicus [2]; [3]): 0.49 mg/dL
GLUCOSE (Rattus norvegicus [2]; [3]): 276 mg/dL
LACTATE DEHYDROGENASE (Rattus norvegicus [2]; [3]): 270.5 u/L
LIPASE (Rattus norvegicus [2]; [3]): 9.5 u/L
PHOSPHORUS (Rattus norvegicus [2]; [3]): 16.1 mg/dL
POTASSIUM (Rattus norvegicus [2]; [3]): 5.06 MEQ/L
SODIUM (Rattus norvegicus [2]; [3]): 143.6 MEQ/L
TOTAL BILIRUBIN (Rattus norvegicus [2]; [3]): 0.25 mg/dL
TOTAL PROTEIN (Rattus norvegicus [2]; [3]): 7 G/DL
URIC ACID (Rattus norvegicus [2]; [3]): 2 mg/dL
ABSOLUTE BASOPHIL (Rattus norvegicus [2]; [4]): 0 CELLS/uL
ABSOLUTE EOSINOPHIL (Rattus norvegicus [2]; [4]): 243.33 CELLS/uL
ABSOLUTE LYMPHOCYTE (Rattus norvegicus [2]; [4]): 9225.33 CELLS/uL
ABSOLUTE MONOCYTE (Rattus norvegicus [2]; [4]): 248.33 CELLS/uL
ABSOLUTE SEGMENTED NEUTROPHIL (Rattus norvegicus [2]; [4]): 783 CELLS/uL
BASOPHIL (Rattus norvegicus [2]; [4]): 0%
EOSINOPHIL (Rattus norvegicus [2]; [4]): 2.33%
ERYTHROCYTE COUNT (Rattus norvegicus [2]; [4]): 6.51 x10E6/uL
HEMATOCRIT (Rattus norvegicus [2]; [4]): 38.67%
HEMOGLOBIN (Rattus norvegicus [2]; [4]): 14.03 G/DL
LEUKOCYTE COUNT (Rattus norvegicus [2]; [4]): 10.5 x10E3/uL
LYMPHOCYTE (Rattus norvegicus [2]; [4]): 88%
MEAN CORPUSCULAR HEMOGLOBIN (Rattus norvegicus [2]; [4]): 21.53 pg
MEAN CORPUSCULAR HEMOGLOBIN CONCENTRATION (Rattus norvegicus [2]; [4]): 36.3 G/DL
MEAN CORPUSCULAR VOLUME (Rattus norvegicus [2]; [4]): 59.37 fL
MONOCYTE (Rattus norvegicus [2]; [4]): 2.33%
NEUTROPHIL (Rattus norvegicus [2]; [4]): 7.33%
NUCLEATED RED BLOOD CELLS (Rattus norvegicus [2]; [4]): 0 /100WBC
